Test [1] has as its target GcoA-F169A (Amycolatopsis sp., UniProt P0DPQ7, F169A). Put plainly: End-point stoichiometry and coupling assay (formaldehyde by tryptophan assay, aromatics by HPLC, NADH by UV/vis). Details: GST (N, cleaved yes); made in house; host or cells: E. coli Rosetta 2 (DE3). Particulars: for Coupling efficiency: F169A, molar ratio formaldehyde produced per NADH consumed, 200 µM NADH, 200 µM aromatic substrate; for % Formaldehyde produced: referenced to NADH consumed; for formaldehyde produced at reaction completion: 100 μM substrate. Type of test: biochemical, Amycolatopsis sp. ATCC 39116. The source says:
Fig. 1. Quantitative analyses of substrate consumption and product generation indicate nearly complete coupling of NADH/O2 consumption to substrate O-demethylation for guaiacol and progressively more uncoupling for syringol and 3MC. […] Reactants and products were quantified when the UV/vis spectrum ceased changing and the reaction was deemed complete. The total NADH consumed is compared with the amounts of formaldehyde and demethylated aromatic compound produced. Pyrogallol, the O-demethylated product of 3MC, is unstable in air under the conditions used in the assay and was not detected. Error bars represent ±1 SD from three or more independent measurements. P values comparing NADH consumption and formaldehyde production were 0.035 for guaiacol, 0.20 for 100 µM syringol, 0.41 for 200 µM syringol, and 0.0035 for 3MC. For NADH consumption and aromatic product production, these P values were 0.011 for guaiacol, 0.00031 for 100 µM syringol, and 0.0084 for 200 µM syringol.
The [formaldehyde] produced on reaction with GcoA-F169A and substrates was determined using a colorimetric assay with tryptophan ([28], [42]); details are provided in SI Appendix.
HPLC was used to verify the O-demethylated product of GcoA-F169A GcoA/GcoB with guaiacol, syringol, or 3MC. In addition, discontinuous HPLC was used to determine the specific activity of aromatic product disappearance. Details are provided in SI Appendix. […]
vi = Vmax[S]/(KM + [S]) (4) […]
Formaldehyde determination. A colorimetric assay using tryptophan can be used to quantify the amount of formaldehyde produced in F169 GcoA/B reactions with guaiacol, syringol, or 3MC. 0.2 µM each of F169 GcoA mutants and GcoB were dissolved in air-saturated buffer (25 mM HEPES, 50 mM NaCl) in a cuvette at pH 7.5, 25 °C. 100 µg/mL catalase was added to each reaction to capture any H2O2 formed during the uncoupled reaction. 200 μM NADH was added and the background rate recorded. 100 (guaiacol, syringol, or 3MC) or 200 (syringol) μM of substrate was then added and the reaction monitored until there was no more change, due to either substrate, NADH or O2 depletion, whichever occurred first. 200 µL of the reaction was then quenched by adding 200 µL of a 0.1% tryptophan solution in 50% ethanol and 200 µL of 90% sulfuric acid. Upon thorough mixing, 40 µL of 1% FeCl3 was added. The solution was then incubated in a heating block for 90 min at 70 °C. After cooling, the absorbance was read at 575 nm and the [formaldehyde] calculated by using ε575 nm = 4.2 mM-1 cm-1, obtained with formaldehyde as a standard (1). A negative control included everything but the substrate and was used as a baseline.
HPLC for product identification and specific activity measurement. Analyte analysis of the above end-point reactions (100 μM guaiacol, syringol, or 3MC, or 200 μM syringol) was performed on an Agilent 1100 LC system (Agilent Technologies) equipped with a G1315B diode array detector (DAD). Each sample and standard was injected at a volume of 10 μL onto a Symmetry C18 column 5 μm, 4.6 x 150 mm column (Waters). The column temperature was maintained at 30 °C and the buffers used to separate the analytes of interest was 0.01% TFA in water (A)/ acetonitrile (B). The separation was carried out using a gradient program of: (A) = 99% and (B) = 1% at time t = 0 min; (A) = 99% and (B) = 1% at time t = 2 min, (A) = 50% and (B) = 50% at t = 8 min; (A) = 1% and (B) = 99% at t = 8.01 min; (A) = 99% and (B) = 1% at t = 10.01 min; (A) = 99% and (B) = 1% at t = 11 min. The flow rate was held constant at 1.5 mL min-1, resulting in a run time of 11 minutes. DAD wavelengths of 210 and 325 nm were used for analysis of the analytes of interest. Standard curves were generated using 0-500 μM of guaiacol, syringol, 3MC, catechol, and pyrogallol. Integrated intensities vs [standards] were plotted and the resulting standard curves used to quantify the reactants and products. […]

For test [2], the target named is T1, GcoA variant F169S (Amycolatopsis sp., UniProt P0DPQ7, F169S).
T1 construct: GST (N, cleaved yes); made in house; host or cells: E. coli Rosetta 2 (DE3)
Put plainly: NADH consumption assay (specific activity) with GcoB. Type of test: biochemical, Amycolatopsis sp. ATCC 39116. Particulars: saturating (200 µM) substrate, pH 7.5, 25°C.

The mark [3] stands for this setting: GcoA-F169A, 100 µM substrate + 100 µM NADH.
[4] abbreviates: GcoA-F169A, 200 μM NADH, 210 μM O2.
[5] abbreviates: GcoA-F169A, NADH and syringol ∼200 μM each, 210 μM O2.

The structures appear in SMILES notation.

GcoA-F169A, sequence (P0DPQ7 whole entry F169A): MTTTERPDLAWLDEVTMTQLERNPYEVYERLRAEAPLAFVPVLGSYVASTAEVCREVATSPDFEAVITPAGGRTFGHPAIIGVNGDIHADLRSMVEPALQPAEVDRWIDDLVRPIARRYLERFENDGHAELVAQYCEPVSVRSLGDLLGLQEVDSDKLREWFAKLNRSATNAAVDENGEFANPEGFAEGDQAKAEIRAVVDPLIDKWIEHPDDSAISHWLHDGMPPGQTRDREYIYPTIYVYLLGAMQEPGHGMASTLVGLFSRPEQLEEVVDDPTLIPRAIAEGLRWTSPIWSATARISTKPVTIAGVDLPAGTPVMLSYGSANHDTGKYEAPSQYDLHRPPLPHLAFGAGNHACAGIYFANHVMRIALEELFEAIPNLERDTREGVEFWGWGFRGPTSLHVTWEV
T1 sequence (P0DPQ7 whole entry F169S): as the sequence (P0DPQ7 whole entry F169A) above, with A169S counted along it

For `COc1cccc(O)c1O` [3MC, 3-methoxycatechol], the Coupling efficiency in test [1] came to 64 ± 10%. For the same molecule, the “% Formaldehyde produced” value in test [1] (setting [3]) was determined as 52 ± 7%. Also, in test [1] (setting [4]), the “formaldehyde produced at reaction completion” value is ~100 µM. In test [2], this molecule showed a Specific activity of 6.0 ± 0.8 μmol sec-1 μmol-1 GcoA.
With `COc1ccccc1O` [guaiacol, 2-methoxyphenol], in test [1], the Coupling efficiency was found to be 103 ± 7%. Besides, the “% Formaldehyde produced” value in test [1] (setting [3]) came out at 100 ± 10%. This molecule also returned a Specific activity in test [2] of 5.7 ± 0.8 μmol sec-1 μmol-1 GcoA.
As for `COc1cccc(OC)c1O` [syringol, 2,6-dimethoxyphenol], in test [1], the Coupling efficiency is 104 ± 6%. Further, the “% Formaldehyde produced” value in test [1] (setting [3]) amounted to 125 ± 6%. Besides, the “% Formaldehyde produced” value in test [1] (GcoA-F169A, 100 µM substrate + 200 µM NADH) came to 91 ± 8%. The “formaldehyde produced at reaction completion” value in test [1] (setting [4]) amounted to 170 ± 10 µM. The “singly demethylated intermediate 3MC observed at the end of the reaction” value in test [1] (GcoA-F169A, 100 μM syringol, 200 μM NADH, 210 μM O2) came to 50 ± 4 µM. In test [1] (setting [5]), this molecule showed a 3MC generated of 120 ± 2 µM, a formaldehyde generated of 200 ± 3 µM and a syringol consumed of 150 ± 6 µM. In test [2], this molecule registered a Specific activity of 5.1 ± 0.9 μmol sec-1 μmol-1 GcoA.

The values are drawn from publication PMC6628648, “Enabling microbial syringol conversion through structure-guided protein engineering” (Proceedings of the National Academy of Sciences of the …, 2019).
